# Legend:
# Format in all cases: in vivo, human
# [1] = test system: myelofibrosis (MF) patients; assay: MPN-SAF Total Symptom Score and IWG-MRT symptom response, same study; settings: for number of patients with measurable symptom response (TSS reduction): alone; for MPN-SAF TSS response: patient 101-005 (Cohort 1), 24-30 weeks of monotherapy
# Description: (§1) Recombinant human SAP, in this case the recombinant human SAP known as PRM-151, was administered to myelofibrosis (MF) patients, alone and in combination with ruxolitinib (RUX), to evaluate safety and efficacy in treating bone marrow fibrosis (BMF). Patients with Intermediate-1, Intermediate-2, or high risk MF with grade ≥2 BMF, either not receiving therapy or on a stable dose of RUX, were eligible for this study.
# (§2) Twenty-seven patients were assigned to one of four cohorts based on administration of PRM-151 as a monotherapy or as part of a combination therapy. Cohort 1: i) patients who received no treatment for MF in at least two weeks, ii) were administered an initial loading dose of SAP at 10 mg/kg by intravenous infusion (˜1 hour infusion) on days 1, 3, and 5, and iii) thereafter were administered a dose of SAP every four weeks at 10 mg/kg by intravenous infusion (˜1 hour infusion). Cohort 2: i) patients who received no treatment for MF in at least two weeks, ii) were administered an initial loading dose of SAP at 10 mg/kg by intravenous infusion (˜1 hour infusion) on days 1, 3, and 5, and iii) thereafter were administered a dose of SAP every week at 10 mg/kg by intravenous infusion (˜1 hour infusion). Cohort 3: i) patients on a stable dose (e.g., on ruxolitinib for at least 3 months without any dose modifications) of ruxolitinib for at least 12 weeks with no improvement in spleen during the last four weeks, ii) were administered an initial loading dose of SAP at 10 mg/kg by intravenous infusion (˜1 hour infusion) on days 1, 3, and 5 iii) thereafter were administered a dose of SAP every week at 10 mg/kg by intravenous infusion (˜1 hour infusion), and iv) were administered RUX orally at the dose at which they entered the study. Cohort 4: i) patients on a stable dose (e.g., on ruxolitinib for at least 3 months without any dose modifications) of ruxolitinib for at least 12 weeks with no improvement in spleen during the last four weeks, ii) were administered an initial loading dose of SAP at 10 mg/kg by intravenous infusion (˜1 hour infusion) on days 1, 3, and 5 iii) thereafter were administered a dose of SAP every four weeks at 10 mg/kg by intravenous infusion (˜1 hour infusion), and iv) were administered RUX orally at the dose at which they entered the study.
# (§3) Patients in each cohort were monitored for improvements in BMF and other MF-related complications including, for example, abnormal blood cell parameters, splenomegaly, and symptoms as assessed by the MPN-SAF. In particular, patients were monitored for overall response rate according to the International Working Group consensus criteria for treatment response in myelofibrosis with myeloid metaplasia (Tefferi A, Cervantes F, Mesa R, et al. Revised response criteria for myelofibrosis: International Working Group-Myeloproliferative Neoplasms Research and Treatment (IWG-MRT) and European LeukemiaNet (ELN) consensus report. Blood. 2013; 122:1395-1398). Patients were also monitored for incidence of adverse events, changes in bone marrow fibrosis according to the European Consensus of Grading Bone Marrow Fibrosis (Thiele J, Kvasnicka H M, Facchetti F, et al. European consensus on grading bone marrow fibrosis and assessment of cellularity. Haematologica 2005; 90:1128-1132.), changes in the modified Myeloproliferative Neoplasma Symptom Assessment Form (MPN-SAF) Score (Emanuel et al. 2012, Journal of Clinical Oncology 30(33): 4098-4103), as well as pharmacokinetic parameters including, for example, maximum drug concentration (Cmax), time to maximum concentration (Tmax), area under the curve (AUC), clearance, and volume of distribution.
# (§4) Clinical response assessment, including assessment of spleen size, MPN-SAF, and CBC, was carried out every 4 weeks. BM biopsies were carried out at baseline, 12 weeks, and 24 weeks. The IWG-MRT symptom and bone marrow responses observed at 24 weeks of this study are summarized below in Table 3. […]
# [2] = test system: myelofibrosis (MF) patients; assay: Bone marrow fibrosis grade (European Consensus) and bone marrow response, same study; settings: for number of patients with decrease in bone marrow fibrosis by ≥1 grade: all treatment arms, at 12 or 24 weeks or both; for bone marrow fibrosis grade change: after 12 weeks
# Description: as §1, §2, §3
# Bone marrow biopsies were obtained at baseline and after three months of therapy and were reviewed. […] As detailed below, these improvements in BMF have borne out upon further analysis of the data across further treatment periods.
# Clinical response assessment, including assessment of spleen size, MPN-SAF, and CBC, was carried out every 4 weeks. […]
# [3] = test system: myelofibrosis (MF) patients; assay: Adverse events, tolerability and myelosuppression, Stage 1 study of PRM-151 alone and with ruxolitinib; settings: for safety and tolerability: MF patients, alone and in combination with RUX; for treatment-related myelosuppression: after 24 weeks of therapy, all four cohorts
# Description: as §1, §2, §3
# The numbers indicated in each column below the grade indicate the number of patients in which the adverse event was reported.
# [4] = test system: myelofibrosis (MF) patients; assay: Hemoglobin, platelets (CBC) and red blood cell transfusions, same study; settings: for hemoglobin response / platelet response: patient 101-005 (Cohort 1), 24-30 weeks of monotherapy
# Description: as §1, §2, §3, §4
# [5] = test system: myelofibrosis (MF) patients; assay: Spleen size / spleen response, same study; settings: for number of patients with measurable decrease in spleen size: alone; for spleen size response: patient 101-005 (Cohort 1), 24-30 weeks of monotherapy
# Description: as §1, §2, §3, §4
# [6] = Cohort 1: 10 mg/kg IV Q4W alone, 24 weeks
# [7] = Cohort 2: 10 mg/kg IV QW alone, 24 weeks
# [8] = a number of patients in all 4 treatment arms
substance,measurement,setting,value
"PRM-151: recombinant human SAP (serum amyloid P, pentraxin-2), α2,3-sialic acid-containing, expressed in CHO cells","symptom response ≥8 weeks, number","[1]; Cohort 1: Q4W alone, 24 weeks",1 symptom response ≥8 weeks
same,number of patients with measurable symptom response (TSS reduction),[1]; Cohort 1: every 4 weeks,4
same,"confirmed symptom responses (≥12 weeks), number","[1]; Cohort 2: QW alone, 24 weeks",2 confirmed symptom responses (≥12 weeks)
same,"symptom response ≥8 weeks, number","[1]; Cohort 2: QW alone, 24 weeks",1 symptom response ≥8 weeks
same,number of patients with measurable symptom response (TSS reduction),[1]; Cohort 2: weekly,1
same,additional subjects with 50% decrease in symptom score lasting ≥8 weeks,[1]; less than 50% on Cycle 6 Day 29,Two
same,number of patients with reduction in MPN-SAF TSS compared to baseline,"[1]; of 18 evaluated patients followed to C6D29 or beyond, all four arms",10
same,number of patients with ≥50% reduction in Total Symptom Score,"[1]; on Cycle 6 Day 29, all arms",5
same,MPN-SAF TSS response,[1],decrease
same,MPN-SAF TSS response,[1]; listed as rhSAP,reduction
same,"bone marrow responses, number","[2]; Cohort 1: Q4W alone, 24 weeks",2 bone marrow responses
same,"bone marrow responses, number","[2]; Cohort 1: Q4W alone, 24 weeks, listed as recombinant human SAP",2
same,"bone marrow responses, number","[2]; Cohort 2: QW alone, 24 weeks",1 bone marrow response
same,number of patients with decrease in bone marrow fibrosis by ≥1 grade,[2],5
same,number of patients with decrease in bone marrow fibrosis by ≥1 grade,[2]; listed as recombinant human SAP,five
same,"bone marrow responses, number","[2]; in 10 additional patients evaluated at 36 weeks, alone or in combination",3
same,number of subjects with improvement in BMF,"[2]; of 27 subjects examined, biopsies at baseline and after three months, all cohorts",5
same,bone marrow fibrosis grade change,"[2]; one Cohort 1 patient (every four weeks, alone)",Grade 2 to Grade 0
same,bone marrow fibrosis grade change,"[2]; one Cohort 2 patient (weekly, alone)",Grade 3 to Grade 2
same,bone marrow fibrosis grade change (reticulin staining),"[2]; patient 101-005 (Cohort 1), 12 weeks / three months",Grade 2 to Grade 0
same,bone marrow fibrosis grade change (reticulin staining),"[2]; patient 108-003 (Cohort 4), six months",Grade 2 to Grade 1
same,bone marrow fibrosis grade change (reticulin staining),"[2]; patient 108-003 (Cohort 4), three months",Grade 3 to Grade 2
same,durability of response,"[2]; patients responsive at the 12- or 24-week mark, following 36 weeks of treatment",continued to respond
same,"Abdominal pain Gr 3, number of patients",[3]; [6],1
same,"Fatigue Gr 2, number of patients",[3]; [6],2
same,"Neuropathy Peripheral Gr 2, number of patients",[3]; [6],1
same,"Abdominal pain Gr 3, number of patients",[3]; [7],1
same,"Alanine aminotransferase increased Gr 2, number of patients",[3]; [7],1
same,safety and tolerability,[3]; listed as SAP,good tolerability
same,safety and tolerability,[3]; listed as rhSAP,safe and well tolerated
same,treatment-related myelosuppression,[3],no apparent treatment-related myelosuppression
same,treatment-related myelosuppression,[3]; listed as rhSAP,no evidence of clinically significant myelosuppression
same,hemoglobin levels,[4]; [8],Improvement
same,platelet levels,[4]; [8],Improvement
same,red blood cell transfusions,[4]; [8],decrease
same,hemoglobin response,[4],increase
same,platelet response,[4],increase
same,hemoglobin response,[4]; listed as rhSAP,improvement
same,platelet response,[4]; listed as rhSAP,improvement
same,number of patients with measurable decrease in spleen size,[5]; Cohort 1: every 4 weeks,3
same,"spleen response ≥8 weeks, number","[5]; Cohort 2: QW alone, 24 weeks",1 spleen response ≥8 weeks
same,number of patients with measurable decrease in spleen size,[5]; Cohort 2: weekly,2
same,number of patients with ≥20% reduction in spleen volume,"[5]; all treatment arms, 24 weeks",five
same,number of patients with reduction in spleen size compared to baseline,"[5]; of 13 evaluated patients with palpable spleen followed to C6D29 or beyond, all four arms",10
same,reduction in spleen volume,"[5]; one patient, Cohort 2 (weekly, alone), lasting 8 weeks",50%
same,spleen size response,[5],decrease
same,spleen size response,[5]; listed as rhSAP,reduction
